# Measured values: patent publication US20210093625A1, “COMBINATION THERAPY” (Celleron Therapeutics Limited, priority 2019, published 2021)
# Legend:
# [1] = molecular target: HDAC1 (Homo sapiens, UniProt Q13547); assay: HDAC1 inhibition; assay type: biochemical
# [2] = molecular target: HDAC2 (Homo sapiens, UniProt Q92769); assay: HDAC2 inhibition; assay type: biochemical
# [3] = molecular target: HDAC3 (Homo sapiens, UniProt O15379); assay: HDAC3 inhibition; assay type: biochemical
# [4] = system: SW620 cells; assay: RNA-seq of SW620 cells; assay type: cell-based, human
# Description: We performed RNA-seq on polyA-enriched RNA to assess the effect of CXD101 on the global transcript profile in SW620 cells compared to the vehicle-alone (DMSO) treatment (18). The FASTQ data were aligned to the reference human genome (hg19) with STAR aligner and analysed for differential expression using Bioconductor and DESeq2 R suite (19). The sequencing data were of high quality with on average 92% of the reads able to be mapped to the genome (FIG. 1b).
# (§1) SW620 cells were seeded into 6-well plates and left to adhere overnight. Cells were treated with 1 μM, 10 μM of CXD101 for 48 h. CT26 cells were seeded onto 100 mm plates and treated with 2.7 μM and 10 μM CXD101 for 72 h. After treatment cells were harvested and total RNA extracted by means of Promega ReliaPrepμ RNA Cell Miniprep System (Promega, USA). RNA was dissolved in RNAse free water and stored in −80° C. for future analysis. RNA concentration was measured by NanoDrop 2000 (Thermo Fisher Scientific, USA). Samples were qualified for library preparation if […]. Library preparation with poly (A) enrichment was performed by BGI.
# (§2) FASTQ files for CXD101 and DMSO treated samples in three biological replicates were trimmed to remove adapters and low-quality bases with TrimGalore v.0.4.3(http://www.bioinformatics.babraham.ac.uk/projects/trim_galore/). The trimmed reads were aligned to the human reference genome (build hg19) with STAR aligner v.2.7 with two mismatches allowed. Differential gene expression analysis was done with the Bioconductor framework (v.3.8) and DESeq2 R package v.1.22, using read count data provided by the aligner. Genes were considered differentially expressed if the adjusted P, calculated using the Benjamini-Hochberg method in order to minimise the false discovery rate, was less than 0.01 (1%) and the change in expression level was greater than ˜2-fold as compared to DMSO control (e.g. |log_2(expression fold change) |>1).
# [5] = system: SW620 cells; assay: qPCR of single genes in SW620 cells; assay type: cell-based, human; conditions: control gene, FIG. 3
# Description: Total RNA purified from DMSO- or CXD101treated cells was transcribed into cDNA according to the manufacturer's instructions (iScript cDNA Synthesis Kit, Bio-Rad, USA). qPCR was conducted according to the manufacturer's protocol (SsoAdvanced Universal SYBR Green Supermix, Bio-Rad Laboratories, USA) on CFX Connect Real-Time System thermocycler (Bio-Rad Laboratories, USA).
# [6] = system: colon26 cells; assay: RNAseq of colon26 cells in vitro; assay type: cell-based, mouse; conditions: for differentially expressed genes that are immune-related: out of 1142 DEGs
# Description: The RNAseq data was aligned to the reference M.musculus genome (mm10) with STAR aligner and analysed for differential expression. […] Out of 1142 differentially expressed genes identified following CXD101 treatment, 36% (416) were immune-related when analysed using the immunogenicity database (ref), and 34% (388) and 15% (176) when analysed with Import and Immunome databases (ref). We further evaluated transcripts identified in the colon26 RNAseq at the single gene level, focussing on murine genes which are homologues of the immune-related genes identified in human SW620 cells, which included genes in the murine MHC H2 complex. A number of H2 genes including class I and class II genes were induced including H2-D1, DMA, DMB1 and EB1 (FIG. 6).
# as §1, §2
# [7] = system: colon26 tumours; assay: RNAseq of colon26 tumours; assay type: in vivo, Balb/c mice; conditions: log2FC >1 and FDR <1%
# Description: To assess gene expression in tumours that were growing in vivo, we evaluated the effect of CXD101 in the syngeneic colon26 colon carcinoma model in tumours grown subcutaneously in Balb/c mice, with CXD101 given orally for two 5-day consecutive periods and performed RNAseq on RNA purified from the tumours. Formalin-fixed paraffin-embedded samples were also prepared to assess by immunohistochemistry (IHC) the tumour micro-environment.
# The effect was dose-dependent, as more tumour-inhibition occurred with a higher dose of CXD101 (50 mg/kg compared to 15 mg/kg). […] We performed RNA seq on polyA-enriched RNA prepared from the tumours. In a similar way to the analysis of colon26 in vitro, the RNAseq data was aligned to the reference M.musculus genome (mm10) with STAR aligner and analysed for differential expression.
# [8] = physchem; conditions: 25 °C, aqueous buffer
# [9] = human patients, cited from earlier work
# [10] = colon26 cells in vitro, log2 FC >1 and FDR <1%
# Sequence of HDAC1 (Q13547 whole entry, species assumed): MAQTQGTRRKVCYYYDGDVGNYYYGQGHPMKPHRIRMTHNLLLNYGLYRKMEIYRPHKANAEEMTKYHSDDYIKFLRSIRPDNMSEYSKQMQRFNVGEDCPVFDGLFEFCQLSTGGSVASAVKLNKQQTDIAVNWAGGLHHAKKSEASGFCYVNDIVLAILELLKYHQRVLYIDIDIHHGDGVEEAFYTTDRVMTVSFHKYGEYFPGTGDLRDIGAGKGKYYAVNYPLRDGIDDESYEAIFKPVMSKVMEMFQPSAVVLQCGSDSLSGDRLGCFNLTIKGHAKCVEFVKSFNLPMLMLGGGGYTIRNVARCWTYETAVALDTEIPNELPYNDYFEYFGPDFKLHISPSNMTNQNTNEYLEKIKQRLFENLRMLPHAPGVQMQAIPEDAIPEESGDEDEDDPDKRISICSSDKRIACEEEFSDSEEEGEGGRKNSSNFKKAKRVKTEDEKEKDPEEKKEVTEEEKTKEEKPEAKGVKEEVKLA
# Sequence of HDAC3 (O15379 whole entry, species assumed): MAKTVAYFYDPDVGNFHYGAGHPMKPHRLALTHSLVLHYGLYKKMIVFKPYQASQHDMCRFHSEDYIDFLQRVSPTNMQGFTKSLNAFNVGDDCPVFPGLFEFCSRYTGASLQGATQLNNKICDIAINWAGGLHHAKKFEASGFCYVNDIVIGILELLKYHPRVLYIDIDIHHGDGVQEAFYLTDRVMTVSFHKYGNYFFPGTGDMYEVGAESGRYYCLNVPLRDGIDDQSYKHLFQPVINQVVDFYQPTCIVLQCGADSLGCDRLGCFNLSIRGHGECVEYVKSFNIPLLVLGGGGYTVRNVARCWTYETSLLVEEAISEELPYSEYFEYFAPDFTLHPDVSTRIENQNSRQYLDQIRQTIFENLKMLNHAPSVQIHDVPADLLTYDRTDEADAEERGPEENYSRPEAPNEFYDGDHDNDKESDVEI
# Sequence of HDAC3 (Q9Y618 395-489 partner limits assumed, species assumed): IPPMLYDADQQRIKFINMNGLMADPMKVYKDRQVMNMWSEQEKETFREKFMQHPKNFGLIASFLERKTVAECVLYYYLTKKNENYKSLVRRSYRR
# Sequence of HDAC2 (Q92769 whole entry, species assumed): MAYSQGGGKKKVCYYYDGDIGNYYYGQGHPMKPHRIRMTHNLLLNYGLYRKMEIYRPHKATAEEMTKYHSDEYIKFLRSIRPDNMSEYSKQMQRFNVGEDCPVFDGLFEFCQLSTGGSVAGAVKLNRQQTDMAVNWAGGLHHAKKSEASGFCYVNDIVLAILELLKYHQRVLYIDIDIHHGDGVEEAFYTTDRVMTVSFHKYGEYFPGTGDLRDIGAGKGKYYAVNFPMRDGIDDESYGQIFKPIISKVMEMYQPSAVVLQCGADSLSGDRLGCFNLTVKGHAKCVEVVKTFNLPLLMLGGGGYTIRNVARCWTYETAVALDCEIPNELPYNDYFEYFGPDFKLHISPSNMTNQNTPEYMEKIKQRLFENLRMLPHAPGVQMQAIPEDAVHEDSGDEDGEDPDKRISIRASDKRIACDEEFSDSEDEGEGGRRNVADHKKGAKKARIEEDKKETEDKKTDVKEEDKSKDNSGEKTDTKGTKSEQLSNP
compound,measurement,setting,value
"Cc1nn(C)cc1CN1CCC(c2ccc(C(=O)Nc3ccccc3N)cc2)CC1 [CXD101, N-(2-aminophenyl)-4-(1-[(1,3-dimethyl-1H-pyrazol-4-yl)methyl]piperidin-4yl)benzamide]",IC50,[1],63 nM
same,IC50,[2],570 nM
same,IC50,[3],550 nM
same,proportion of DEGs down-regulated,[4]; SW620,30%
same,proportion of DEGs up-regulated,[4]; SW620,70%
same,number of differentially expressed transcripts (DEGs),"[4]; SW620, log2 FC >1 and FDR <1%, vs DMSO",about 2500
same,expression of REPIN1,[5],no effect
same,genes down-regulated,[6]; [10],611
same,genes up-regulated,[6]; [10],1891
same,size of DEG set in vitro,"[6]; colon26 cells, log2FC >1 and FDR <1%",2502
same,differentially expressed genes that are immune-related,[6]; Immunome database,15%
same,differentially expressed genes that are immune-related,[6]; Import database,34%
same,differentially expressed genes that are immune-related,[6]; immunogenicity database,36%
same,size of DEG set in vivo,[7],1141
same,solubility,[8],≥ 500 µg/mL
same,MTD,[9]; for 5 days in a 3-weekly cycle,20 mg B.D.
same,safety profile,[9],favourable safety profile
